According to US20100248265A1, “COMPOSITIONS AND METHODS FOR DIAGNOSIS AND TREATMENT OF CANCER” (The Salk Institute for Biological Studies, priority 2009, published 2010):

Columns and labels:
mTOR [1] = biological target: mTOR (Homo sapiens, UniProt P42345); test: Western blot for mTOR autophosphorylation at S2481 in cells treated with mTOR kinase inhibitors; assay type: cell-based; settings: actively growing Hela and MDA-MB-468 cells; 1 h at 37° C.
Protocol: (§5) Whole cell lysates were then analyzed for mTOR phosphorylation at S2481. Phosphorylation of the mTORC1 substrate S6K at T389 and the mTORC2 substrate Akt at S473 were analyzed as controls.

S6K = test: Western blot for mTORC1 substrate S6K phosphorylated at T389 in cells treated with mTOR kinase inhibitors; settings: 1 h at 37° C.
Protocol: as §5

mTOR [2] = test: Western blot for mTOR autophosphorylation at S2481 in cells treated with mTOR kinase inhibitors; assay type: cell-based; settings: actively growing MEFs, U2OS, Hela and MDA-MB-468 cells; 1 h at 37° C.
Protocol: as §5

Akt = test: Western blot for mTORC2 substrate Akt phosphorylated at S473 in cells treated with mTOR kinase inhibitors; settings: 1 h at 37° C.
Protocol: as §5

[3] = test system: ER positive breast cancer; settings: ER positive breast cancer patients; randomized trial, endocrine therapy plus everolimus; cited from earlier work
breast cancer = settings: unselected breast cancer patients; cited from earlier work
mTOR [4] = biological target: T1, mTOR (Homo sapiens, UniProt P42345+P62942); test: Immunoblot of whole cell lysates for mTOR phosphorylated on S2448 (rapamycin / insulin treatment); assay type: cell-based; settings: serum-starved HEK293 cells; 200 nM insulin for 5 min.
T1 construct: specifically deplete endogenous mTOR, Rictor or Raptor were expressed in HEK293 cells; endogenous in cells
Text: (§1) Antibodies and reagents. The following antibodies were purchased from Cell Signaling Technology: phospho-mTOR(S2448 and S2481), Akt and phospho-Akt (S473) rabbit polyclonal antibodies. Phospho-S6K (T389) and mTOR (mTab1) rabbit polyclonal antibodies were purchased from Millipore. Rictor and mSin1 rabbit polyclonal antibodies were purchased from Bethyl Laboratories. The anti-Raptor rabbit antiserum was developed with the antibody service from Invitrogen utilizing the peptide […], amino acid sequence 918-933 of human Raptor. Rapamycin was purchased from Sigma. Insulin and IGF-1 were purchased from Research Diagnostics, Inc.
(§2) Cell culture, cell lysis and immunoprecipitation. […]
(§3) Cells were rinsed 2× with cold PBS and lysed in 1 ml 50 mM Hepes pH 7.5, 150 mM NaCl, 10% glycerol, 0.3% Chaps (v/v), 1.5 mM MgCl2, 1 mM EGTA, 100 mM NaF, 500 μM sodium orthovanadate, 10 μg/ml aprotinin, and 10 μg/ml leupeptin per 10 cm tissue culture dish. […] Protein concentrations were determined using the Bio-Rad DC Protein Assay kit according to manufacturer's protocol. […]
(§4) Because S2481 phosphorylation requires intact mTORC2, we tested whether prolonged rapamycin treatment had any effect on S2481 phosphorylation. Whole cell lysates from control and insulin-stimulated cells treated with 100 nM rapamycin for either one or 24 hr were analyzed for phosphorylation of mTOR on S2448 and S2481.

mTOR [5] = test: Immunoblot of whole cell lysates for mTOR phosphorylated on S2481 (rapamycin / insulin treatment); assay type: cell-based; settings: serum-starved HEK293 cells; 200 nM insulin for 5 min.
Text: Antibodies and reagents. The following antibodies were purchased from Cell Signaling Technology: phospho-mTOR(S2448 and S2481), Akt and phospho-Akt (S473) rabbit polyclonal antibodies. Phospho-S6K (T389) and mTOR (mTab1) rabbit polyclonal antibodies were purchased from Millipore. Rictor and mSin1 rabbit polyclonal antibodies were purchased from Bethyl Laboratories. The anti-Raptor rabbit antiserum was developed with the antibody service from Invitrogen utilizing the peptide [sequence], amino acid sequence 918-933 of human Raptor. Rapamycin was purchased from Sigma. Insulin and IGF-1 were purchased from Research Diagnostics, Inc.
Lentivirus-mediated gene knockdown. […]
Virus-containing supernatants were collected 48 hr. after transfection. Cells were infected twice in the presence of 1 μg/ml polybrene, selected for puromycin resistance and analyzed 48-72 hr. post-infection. […]

mTORC2 = biological target: T2, mTORC2 (Homo sapiens, UniProt P42345+P62942); test: Rictor (and Raptor) immunoprecipitates analyzed by immunoblotting for bound mTOR (mTORC2 assembly); assay type: cell-based; settings: serum-starved HEK293 cells; 200 nM insulin for 5 min.
T2 construct: endogenous in cells; host or cells: HEK293, U2OS, MDA-MB-231, MDA-MB-468, SKBR3, A549
Text: as §1, §2, §3
as §4, with “S2481. […]” for “S2481.”

[6] = actively growing Hela and MDA-MB-468 cells
[7] = actively growing MEFs, U2OS, Hela and MDA-MB-468 cells

Compound | phosphorylation of mTORC1 substrate S6K at T389 (S6K; [6]) | phosphorylation of mTORC1 substrate S6K at T389 (S6K; [7]) | mTOR autophosphorylation at S2481 (mTOR [2]) | phosphorylation of mTORC2 substrate Akt at S473 (Akt; [6]) | phosphorylation of mTORC2 substrate Akt at S473 (Akt; [7]) | also measured
COc1ccc2c(c1OC)N=C(NC(=O)c1cccnc1)N1CCN=C21 [PIK-90] |  |  |  |  |  | mTOR autophosphorylation at S2481 (mTOR [1]): reduction
CC(C)n1nc(-c2cc3cc(O)ccc3[nH]2)c2c(N)ncnc21 [PP242] | inhibited | inhibited | abolished | inhibited | inhibited | 
CCC(=O)N1CCN(c2ccc(-n3c(=O)ccc4cnc5ccc(-c6cnc7ccccc7c6)cc5c43)cc2C(F)(F)F)CC1 [Torin1] | inhibited | inhibited | abolished | inhibited | inhibited | 
CO[C@H]1C[C@@H]2CC[C@@H](C)[C@@](O)(O2)C(=O)C(=O)N2CCCC[C@H]2C(=O)O[C@H]([C@H](C)C[C@@H]2CC[C@@H](OCCO)[C@H](OC)C2)CC(=O)[C@H](C)/C=C(\C)[C@@H](O)[C@@H](OC)C(=O)[C@H](C)C[C@H](C)/C=C/C=C/C=C/1C [everolimus] |  |  |  |  |  | effect on efficacy of endocrine therapy [3]: significantly increases the efficacy of endocrine therapy
CO[C@H]1C[C@@H]2CC[C@@H](C)[C@@](O)(O2)C(=O)C(=O)N2CCCC[C@H]2C(=O)O[C@H]([C@H](C)C[C@@H]2CC[C@@H](OC(=O)C(C)(CO)CO)[C@H](OC)C2)CC(=O)[C@H](C)/C=C(\C)[C@@H](O)[C@@H](OC)C(=O)[C@H](C)C[C@H](C)/C=C/C=C/C=C/1C [temsirolimus] |  |  |  |  |  | patients who responded to treatment (breast cancer): 10%
insulin: growth factor used to stimulate serum-starved cells; purchased from Research Diagnostics, Inc. |  |  |  |  |  | S2448 phosphorylation of mTOR (mTOR [4]): increased; S2481 phosphorylation of mTOR (mTOR [5]): increased; amount of mTOR associated with either Raptor or Rictor (mTORC2): did not change
